Patent US20240228488A1 (TAKEDA PHARMACEUTICAL COMPANY LIMITED, priority 2021, published 2024)

Tests used:
plasma kallikrein = target: T1, plasma kallikrein (Homo sapiens, UniProt P03952); test: Neat human plasma assay, FXIIa contact pathway-activated, PFR-AMC substrate; format: biochemical; conditions: citrated human plasma 78% final, 10 nM human FXIIa, 100 μM PFR-AMC; read-out: Human Plasma Assay: IC90
T1 construct: from tissue
Summary of the method: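 Compound inhibition of plasma kallikrein measured as PFR-AMC (100 μM) cleavage rate over 5 min at room temperature in 78% citrated human plasma activated with 10 nM FXIIa (Tris pH 7.5 buffer). IC50/IC90 from 4-parameter fit of rate versus inhibitor concentration.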

[1] = target: human activated kallikrein enzyme (Homo sapiens, UniProt P03952); test: Plasma kallikrein inhibition, fluorogenic PFR-AMC substrate, 500 pM activated kallikrein format; format: biochemical; conditions: 500 pM activated kallikrein, 300 uM PFR-AMC, 30 min preincubation, 10 min reaction; read-out: Primary Dose Response Assay: Average EC50
Summary of the method: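 Fluorogenic readout (ex 380 / em 460 nm) after 10 min room-temperature reaction with 300 uM Pro-Phe-Arg-AMC substrate, following 30 min preincubation of inhibitors with 500 pM enzyme. Buffer: Tris pH 7.5, EDTA, NaCl, PEG-400, Triton X-100. Values given as EC50 ranges.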

Sequence of human activated kallikrein enzyme (P03952 391-638 limits assumed): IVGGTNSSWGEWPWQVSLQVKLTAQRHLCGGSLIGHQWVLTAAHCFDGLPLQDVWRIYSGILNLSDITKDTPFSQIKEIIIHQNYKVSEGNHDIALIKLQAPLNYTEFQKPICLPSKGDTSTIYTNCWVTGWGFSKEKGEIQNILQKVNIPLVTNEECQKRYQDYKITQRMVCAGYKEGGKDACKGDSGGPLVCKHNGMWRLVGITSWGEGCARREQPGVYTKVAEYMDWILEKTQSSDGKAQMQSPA
Sequence of human activated kallikrein enzyme (P03952 20-390 partner limits assumed): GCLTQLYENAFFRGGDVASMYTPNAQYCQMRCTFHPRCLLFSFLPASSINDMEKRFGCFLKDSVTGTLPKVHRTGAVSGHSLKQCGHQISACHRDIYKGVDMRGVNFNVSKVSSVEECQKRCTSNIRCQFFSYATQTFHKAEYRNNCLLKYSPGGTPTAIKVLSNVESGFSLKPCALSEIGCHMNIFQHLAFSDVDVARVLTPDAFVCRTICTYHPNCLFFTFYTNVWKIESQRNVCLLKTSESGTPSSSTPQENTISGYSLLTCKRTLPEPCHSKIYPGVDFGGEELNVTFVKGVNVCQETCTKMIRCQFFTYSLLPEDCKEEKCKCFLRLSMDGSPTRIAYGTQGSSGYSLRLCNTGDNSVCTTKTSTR
T1 sequence (P03952 391-638 limits assumed): as the sequence (P03952 391-638 limits assumed) above
T1 sequence (P03952 20-390 partner limits assumed): as the sequence (P03952 20-390 partner limits assumed) above

IC90 (plasma kallikrein) | EC50 [1] | SMILES
< 400 nM | < 1 nM | COc1cnc(NC(=O)[C@H]2C[C@@H]2c2nccc(C)n2)nc1NCc1cn2cc(C3CC3)cc(N3CC(=O)N(C)C3=O)c2n1 (racemic) [Example I-244, rac-(1S*,2S*)-N-(4-(((6-cyclopropyl-8-(3-methyl-2,4-dioxoimidazolidin-1-yl)imidazo[1,2-a]pyridin-2-yl)methyl)amino)-5-methoxypyrimidin-2-yl)-2-(4-methylpyrimidin-2-yl)cyclopropane-1-carboxamide]
< 400 nM | < 1 nM | Cc1ccnc([C@H]2C[C@@H]2C(=O)Nc2cc(NCc3cn4cc(C5CC5)cc(N5CC(=O)N(C)C5=O)c4n3)ncn2)n1 (racemic) [Example I-259, rac-(1S*,2S*)—N-(6-(((6-cyclopropyl-8-(3-methyl-2,4-dioxoimidazolidin-1-yl)imidazo[1,2-a]pyridin-2-yl)methyl)amino)pyrimidin-4-yl)-2-(4-methylpyrimidin-2-yl)cyclopropane-1-carboxamide]
400 to 1500 nM | < 1 nM | CN1C(=O)CN(c2cc(C3CC3)cn3cc(CNc4cc(NC(=O)[C@H]5C[C@@H]5c5cc(Cl)ccn5)ncn4)nc23)C1=O (racemic) [Example I-262, rac-(1S*,2S*)-2-(4-chloropyridin-2-yl)-N-(6-(((6-cyclopropyl-8-(3-methyl-2,4-dioxoimidazolidin-1-yl)imidazo[1,2-a]pyridin-2-yl)methyl)amino)pyrimidin-4-yl)cyclopropane-1-carboxamide]
10000 to 48000 nM | < 1 nM | O=C(Nc1cc(NCc2cn3cc(C4CC4)ccc3n2)ccn1)[C@H]1C[C@@H]1c1cc(Cl)ccn1 (racemic) [Example I-268, rac-(1S*,2S*)-2-(4-chloropyridin-2-yl)-N-(4-(((6-cyclopropylimidazo[1,2-a]pyridin-2-yl)methyl)amino)pyridin-2-yl)cyclopropane-1-carboxamide]
1500 to 10000 nM | 1 to 10 nM | O=C(Nc1cc(NCc2cn3cc(C4CC4)cc(N4C[C@@H](O)CC4=O)c3n2)ncn1)[C@H]1C[C@@H]1c1cccc(Cl)c1 (relative stereo) [Example 62, (rac-(1S*,2S*))-2-(3-chlorophenyl)-N-(6-(((6-cyclopropyl-8-((S)-4-hydroxy-2-oxopyrrolidin-1-yl)imidazo[1,2-a]pyridin-2-yl)methyl)amino)pyrimidin-4-yl)cyclopropane-1-carboxamide]
1500 to 10000 nM | < 1 nM | Cc1ccnc([C@H]2C[C@@H]2C(=O)Nc2cc(NCc3cn4cc(C5CC5)cc(N5CC6CC6C5=O)c4n3)ncn2)n1 (relative stereo) [Example 317, rac-(1S*,2S*)—N-(6-(((6-cyclopropyl-8-(2-oxo-3-azabicyclo[3.1.0]hexan-3-yl)imidazo[1,2-a]pyridin-2-yl)methyl)amino)pyrimidin-4-yl)-2-(4-methylpyrimidin-2-yl)cyclopropane-1-carboxamide]
1500 to 10000 nM | < 1 nM | Cc1ccnc([C@H]2C[C@@H]2C(=O)Nc2cc(NC(C)c3cn4cc(C5CC5)cc(N5CC(=O)N(C)C5=O)c4n3)ncn2)n1 (relative stereo) [Example 449, rac-(1S*,2S*)—N-(6-((1-(6-cyclopropyl-8-(3-methyl-2,4-dioxoimidazolidin-1-yl)imidazo[1,2-a]pyridin-2-yl)ethyl)amino)pyrimidin-4-yl)-2-(4-methylpyrimidin-2-yl)cyclopropane-1-carboxamide]
1500 to 10000 nM | 1 to 10 nM | Cc1ccnc([C@H]2C[C@@H]2C(=O)Nc2cc(N3C[C@@H](O)C[C@@H]3c3cn4cc([C@H]5C[C@@H]5C)ccc4n3)ncn2)n1 (relative stereo) [Example 470, (1S,2S)-N-(6-((2R,4S)-4-hydroxy-2-(6-((1S*,2S*)-2-methylcyclopropyl)imidazo[1,2-a]pyridin-2-yl)pyrrolidin-1-yl)pyrimidin-4-yl)-2-(4-methylpyrimidin-2-yl)cyclopropane-1-carboxamide]
400 to 1500 nM | < 1 nM | Cc1ccnc([C@H]2C[C@@H]2C(=O)Nc2cc(N3C[C@@H](O)C[C@@H]3c3cn4cc(C5CC5)cc(N5CCOC5=O)c4n3)ncn2)n1 (relative stereo) [Example 471, rac-(1S*,2S*)-N-(6-((2R,4S)-2-(6-cyclopropyl-8-(2-oxooxazolidin-3-yl)imidazo[1,2-a]pyridin-2-yl)-4-hydroxypyrrolidin-1-yl)pyrimidin-4-yl)-2-(4-methylpyrimidin-2-yl)cyclopropane-1-carboxamide]
1500 to 10000 nM | 1 to 10 nM | Cc1ccnc([C@H]2C[C@@H]2C(=O)Nc2cc(N3C[C@@H](O)C[C@@H]3c3cn4cc(C5CC5)ccc4n3)ncn2)c1 (relative stereo) [Example 472, rac-(1S*,2S*)-N-(6-((2R,4S)-2-(6-cyclopropylimidazo[1,2-a]pyridin-2-yl)-4-hydroxypyrrolidin-1-yl)pyrimidin-4-yl)-2-(4-methylpyridin-2-yl)cyclopropane-1-carboxamide]
400 to 1500 nM | < 1 nM | Cc1ccnc([C@H]2C[C@@H]2C(=O)Nc2cc(N3C[C@@H](O)C[C@@H]3c3cn4cc(C5CC5)cc(N5CC(=O)N(C)C5=O)c4n3)ncn2)n1 (relative stereo) [Example 473, rac-(1S*,2S*)-N-(6-((2R,4S)-2-(6-cyclopropyl-8-(3-methyl-2,4-dioxoimidazolidin-1-yl)imidazo[1,2-a]pyridin-2-yl)-4-hydroxypyrrolidin-1-yl)pyrimidin-4-yl)-2-(4-methylpyrimidin-2-yl)cyclopropane-1-carboxamide]
400 to 1500 nM | < 1 nM | Cc1ccnc([C@H]2C[C@@H]2C(=O)Nc2cc(N3C[C@@H](O)C[C@@H]3c3cn4cc(C5CC5)cc(N5CC(=O)NC5=O)c4n3)ncn2)n1 (relative stereo) [Example 474, rac-(1S*,2S*)-N-(6-((2R,4S)-2-(6-cyclopropyl-8-(2,4-dioxoimidazolidin-1-yl)imidazo[1,2-a]pyridin-2-yl)-4-hydroxypyrrolidin-1-yl)pyrimidin-4-yl)-2-(4-methylpyrimidin-2-yl)cyclopropane-1-carboxamide]
1500 to 10000 nM | < 1 nM | Cc1ccnc([C@H]2C[C@@H]2C(=O)Nc2cc(N3C[C@@H](O)C[C@@H]3c3cn4cc(C5CC5)ccc4n3)ncn2)n1 (relative stereo) [Example 476, rac-(1S*,2S*)-N-(6-((2R,4S)-2-(6-cyclopropylimidazo[1,2-a]pyridin-2-yl)-4-hydroxypyrrolidin-1-yl)pyrimidin-4-yl)-2-(4-methylpyrimidin-2-yl)cyclopropane-1-carboxamide]
1500 to 10000 nM | 1 to 10 nM | N#Cc1ccc(Cl)cc1[C@H]1C[C@@H]1C(=O)Nc1cc(N2C[C@@H](O)C[C@@H]2c2cn3cc(C4CC4)ccc3n2)ncn1 (relative stereo) [Example 477, rac-(1S*,2S*)-2-(5-chloro-2-cyanophenyl)-N-(6-((2R,4S)-2-(6-cyclopropylimidazo[1,2-a]pyridin-2-yl)-4-hydroxypyrrolidin-1-yl)pyrimidin-4-yl)cyclopropane-1-carboxamide]
1500 to 10000 nM | < 1 nM | O=C(Nc1cc(N2C[C@@H](O)C[C@@H]2c2cn3cc(C4CC4)ccc3n2)ncn1)[C@H]1C[C@@H]1c1nccc(Cl)n1 (relative stereo) [Example 481, rac-(1S*,2S*)-2-(4-chloropyrimidin-2-yl)-N-(6-((2R,4S)-2-(6-cyclopropylimidazo[1,2-a]pyridin-2-yl)-4-hydroxypyrrolidin-1-yl)pyrimidin-4-yl)cyclopropane-1-carboxamide]
400 to 1500 nM | < 1 nM | Cc1ccnc([C@H]2C[C@@H]2C(=O)Nc2cc(N3C[C@@H](O)C[C@@H]3c3cn4cc(C5CC5)cc(N5CC6CC6C5=O)c4n3)ncn2)n1 (relative stereo) [Example 482, rac-(1S*,2S*)—N-(6-((2R,4S)-2-(6-cyclopropyl-8-(2-oxo-3-azabicyclo[3.1.0]hexan-3-yl)imidazo[1,2-a]pyridin-2-yl)-4-hydroxypyrrolidin-1-yl)pyrimidin-4-yl)-2-(4-methylpyrimidin-2-yl)cyclopropane-1-carboxamide]
400 to 1500 nM | < 1 nM | Cc1nc(NC(=O)[C@H]2C[C@@H]2c2ncc(F)c(C)n2)cc(N[C@H](C)c2cn3cc(C4CC4)cc(N4CC(=O)N(C)C4=O)c3n2)n1 (relative stereo) [Example 491, rac-(-(1S*,2S*)-N-(6-(((R)-1-(6-cyclopropyl-8-(3-methyl-2,4-dioxoimidazolidin-1-yl)imidazo[1,2-a]pyridin-2-yl)ethyl)amino)-2-methylpyrimidin-4-yl)-2-(5-fluoro-4-methylpyrimidin-2-yl)cyclopropane-1-carboxamide]
400 to 1500 nM | < 1 nM | Cc1nc([C@H]2C[C@@H]2C(=O)Nc2cc(N[C@H](C)c3cn4cc(C5CC5)cc(N5CC(=O)N(C)C5=O)c4n3)ncn2)ncc1F (relative stereo) [Example 492, rac-(-(1S*,2S*)-N-(6-(((R)-1-(6-cyclopropyl-8-(3-methyl-2,4-dioxoimidazolidin-1-yl)imidazo[1,2-a]pyridin-2-yl)ethyl)amino)pyrimidin-4-yl)-2-(5-fluoro-4-methylpyrimidin-2-yl)cyclopropane-1-carboxamide]
400 to 1500 nM | < 1 nM | COc1ccnc([C@H]2C[C@@H]2C(=O)Nc2cc(N[C@H](C)c3cn4cc(C5CC5)cc(N5CC(=O)N(C)C5=O)c4n3)ncn2)n1 (relative stereo) [Example 529, rac-(1S*,2S*)-N-(6-(((R)-1-(6-cyclopropyl-8-(3-methyl-2,4-dioxoimidazolidin-1-yl)imidazo[1,2-a]pyridin-2-yl)ethyl)amino)pyrimidin-4-yl)-2-(4-methoxypyrimidin-2-yl)cyclopropane-1-carboxamide]
